For experiment [1], the target named is T1, EGFR mutant L858R (Homo sapiens, UniProt P00533, L858R).
T1 construct: truncated human JAK3, EGFR mutants such as del E746-A750; purchased Carna Biosciences
The experiment is described as follows: Kinase inhibition assay, EGFR L858R.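 Note: truncated human EGFR L858R kinase with compound preincubation, ULight-PolyGT peptide phosphorylation read by Europium-antibody Lance detection, IC50.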 The format is biochemical. Particulars: read-out: EGFR mutants L858R.

The test system of experiment [2] is H1975 (EGFR L858R/T790M mutant). The experiment in a line: Cell viability assay, H1975.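 For all read-outs here: NSCLC cells whose survival relies on EGFR L858R/T790M, exposed 72 h to serially diluted compound, ATP-based viability readout, with the H2073 line (wildtype EGFR dependent) as wildtype comparator.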 The format is cell-based. Particulars: for IC50: Homo sapiens, NCI-H1975, cellular potency, 72-hour incubation, ATPLite, read-out: EGFR Mutants H1975; for Selectivity over wildtype, Wildtype vs mutant H2073/H1975 (fold): cellular potency ratio. (In general: In ATP-based viability assays light output follows the ATP content of the culture.)

In experiment [3] the target is T2, EGFR mutant Del19 (E746-A750) (Homo sapiens, UniProt P00533, DEL746-750).
T2 construct: truncated human JAK3, EGFR mutants such as del E746-A750; purchased Carna Biosciences
T2 sequence (P00533 with tags, fused parts or gaps DEL746-750 limits assumed): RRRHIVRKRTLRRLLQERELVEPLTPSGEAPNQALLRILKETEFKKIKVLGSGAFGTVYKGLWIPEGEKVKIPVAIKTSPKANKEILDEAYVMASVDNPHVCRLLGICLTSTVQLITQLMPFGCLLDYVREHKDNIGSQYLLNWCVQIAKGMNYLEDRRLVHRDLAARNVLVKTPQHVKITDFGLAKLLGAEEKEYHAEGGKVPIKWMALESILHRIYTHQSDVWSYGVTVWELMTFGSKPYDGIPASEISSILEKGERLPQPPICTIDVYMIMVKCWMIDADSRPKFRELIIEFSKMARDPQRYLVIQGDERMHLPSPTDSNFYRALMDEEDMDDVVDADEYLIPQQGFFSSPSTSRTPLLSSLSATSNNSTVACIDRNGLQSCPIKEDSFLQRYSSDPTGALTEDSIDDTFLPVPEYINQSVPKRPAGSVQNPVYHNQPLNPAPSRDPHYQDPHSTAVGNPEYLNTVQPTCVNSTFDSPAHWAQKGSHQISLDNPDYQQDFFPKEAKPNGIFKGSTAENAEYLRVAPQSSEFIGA
The experiment is described as follows: Kinase inhibition assay, EGFR del E746-A750.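 Note: truncated human EGFR mutant kinase, two-hour preincubation with compound, then one-hour reaction with ATP and ULight-PolyGT peptide, LANCE Europium-antibody phosphorylation readout, IC50.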 Format: biochemical. Conditions: read-out: EGFR mutants Del19 (E746-A750).

Experiment [4] concerns the target T3, SYK (Homo sapiens, UniProt P43405).
T3 construct: Purified human, full-length SYK, KDR; purchased Carna Biosciences
The experiment is described as follows: Kinase inhibition assay, SYK.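 Note: purified full-length human SYK pre-incubated 30 min with compound, then ULight-TK peptide phosphorylation for 1 h, detected with Europium-labeled antibody in Lance buffer.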 Format: biochemical. Particulars: biochemical potency.

The test system of experiment [5] is PC9 (EGFR del E746-A750 mutant). The experiment in a line: Cell viability assay, PC9.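 For all read-outs here: NSCLC PC9 cells, whose viability relies on EGFR del E746-A750, exposed to serially diluted compound for 72 h at 37 °C, ATPLite read-out, IC50, H2073 as EGFR wildtype line.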 The format is cell-based. Particulars: for Selectivity over wildtype, Wildtype vs mutant H2073/PC9 (fold): cellular potency ratio; for IC50: cellular potency, 72-hour incubation, ATPLite, read-out: EGFR Mutants PC9.
In experiment [6] the test system is H2073 (EGFR wildtype). The experiment is described as follows: Cell viability assay, H2073.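 Note: NSCLC cell line whose survival relies on wildtype EGFR, treated with serially diluted compound, cytotoxic effect judged from remaining cell viability.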 Particulars: NCI-H2073; cellular potency; 72-hour incubation; ATPLite. The format is cell-based.
Experiment [7] addresses T4, EGFR mutant L858R/T790M (Homo sapiens, UniProt P00533, L858R/T790M).
T4 construct: truncated human JAK3, EGFR mutants such as del E746-A750; purchased Carna Biosciences
The experiment in a line: Kinase inhibition assay, EGFR L858R/T790M.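 Note: truncated human enzyme preincubated two hours with compound, then one hour with one millimolar ATP and ULight-PolyGT peptide, Europium-labeled antibody detection, IC50.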 Conditions: read-out: EGFR mutants L858R/T790M. The format is biochemical.

Experiment [8] addresses T5, EGFR mutant T790M (Homo sapiens, UniProt P00533, T790M).
T5 construct: truncated human JAK3, EGFR mutants such as del E746-A750; purchased Carna Biosciences
The experiment is described as follows: Kinase inhibition assay, EGFR mutant T790M.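 Note: truncated human EGFR mutant enzyme preincubated two hours with compound, then ATP plus ULight-PolyGT peptide for one hour, Europium-labeled antibody LANCE detection, IC50.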 Conditions: biochemical potency.

Experiment [9] concerns the target T6, EGFR mutant Del19/T790M (Homo sapiens, UniProt P00533, DEL746-750/T790M).
T6 construct: truncated human JAK3, EGFR mutants such as del E746-A750; purchased Carna Biosciences
The experiment is described as follows: Kinase inhibition assay, EGFR del E746-A750/T790M. The format is biochemical. Particulars: read-out: EGFR mutants Del19/T790M.

T5 sequence (P00533 669-1210 T790M limits assumed): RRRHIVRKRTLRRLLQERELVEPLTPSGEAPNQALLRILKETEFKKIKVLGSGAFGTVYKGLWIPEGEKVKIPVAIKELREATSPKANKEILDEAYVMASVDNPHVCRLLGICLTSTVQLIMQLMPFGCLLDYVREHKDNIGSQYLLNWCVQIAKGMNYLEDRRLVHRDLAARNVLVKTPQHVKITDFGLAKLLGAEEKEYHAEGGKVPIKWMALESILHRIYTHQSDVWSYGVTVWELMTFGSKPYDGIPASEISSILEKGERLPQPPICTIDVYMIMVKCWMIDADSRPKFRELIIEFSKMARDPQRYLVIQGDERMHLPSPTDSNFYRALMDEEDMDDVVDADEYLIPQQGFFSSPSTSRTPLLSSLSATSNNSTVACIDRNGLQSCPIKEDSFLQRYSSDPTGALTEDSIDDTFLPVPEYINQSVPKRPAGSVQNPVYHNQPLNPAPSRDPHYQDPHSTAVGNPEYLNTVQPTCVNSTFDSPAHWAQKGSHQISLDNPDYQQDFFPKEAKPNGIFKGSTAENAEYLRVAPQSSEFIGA
T4 sequence (P00533 669-1210 T790M/L858R limits assumed): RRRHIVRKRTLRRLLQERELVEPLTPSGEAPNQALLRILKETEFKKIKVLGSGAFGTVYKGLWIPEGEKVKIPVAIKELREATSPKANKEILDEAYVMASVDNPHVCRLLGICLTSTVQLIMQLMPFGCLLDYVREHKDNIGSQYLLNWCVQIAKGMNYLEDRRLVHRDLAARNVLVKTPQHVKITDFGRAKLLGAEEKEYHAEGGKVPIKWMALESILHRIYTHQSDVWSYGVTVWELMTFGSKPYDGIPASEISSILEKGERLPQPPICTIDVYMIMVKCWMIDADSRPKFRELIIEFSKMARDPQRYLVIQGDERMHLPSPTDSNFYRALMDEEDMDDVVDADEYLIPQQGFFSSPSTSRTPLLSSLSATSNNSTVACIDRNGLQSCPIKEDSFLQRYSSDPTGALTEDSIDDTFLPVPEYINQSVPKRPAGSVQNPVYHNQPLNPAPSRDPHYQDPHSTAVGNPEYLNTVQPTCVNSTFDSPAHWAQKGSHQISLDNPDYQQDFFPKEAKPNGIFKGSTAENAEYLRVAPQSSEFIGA
T1 sequence (P00533 669-1210 L858R limits assumed): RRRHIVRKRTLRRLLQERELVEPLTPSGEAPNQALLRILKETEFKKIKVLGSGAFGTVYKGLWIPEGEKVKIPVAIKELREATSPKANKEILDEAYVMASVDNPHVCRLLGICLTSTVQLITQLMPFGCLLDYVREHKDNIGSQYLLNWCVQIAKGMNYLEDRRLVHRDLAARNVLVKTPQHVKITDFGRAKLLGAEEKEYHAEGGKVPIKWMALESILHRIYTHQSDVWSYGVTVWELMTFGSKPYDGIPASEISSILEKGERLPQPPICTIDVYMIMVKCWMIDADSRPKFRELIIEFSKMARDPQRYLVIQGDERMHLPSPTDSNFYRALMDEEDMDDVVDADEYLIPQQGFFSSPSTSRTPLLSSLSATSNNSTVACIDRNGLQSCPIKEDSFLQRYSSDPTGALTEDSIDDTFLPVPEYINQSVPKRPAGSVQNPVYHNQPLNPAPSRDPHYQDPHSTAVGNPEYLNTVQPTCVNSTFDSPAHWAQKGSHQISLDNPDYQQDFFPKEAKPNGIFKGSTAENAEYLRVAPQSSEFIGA
T6 sequence (P00533 with tags, fused parts or gaps DEL746-750/T790M limits assumed): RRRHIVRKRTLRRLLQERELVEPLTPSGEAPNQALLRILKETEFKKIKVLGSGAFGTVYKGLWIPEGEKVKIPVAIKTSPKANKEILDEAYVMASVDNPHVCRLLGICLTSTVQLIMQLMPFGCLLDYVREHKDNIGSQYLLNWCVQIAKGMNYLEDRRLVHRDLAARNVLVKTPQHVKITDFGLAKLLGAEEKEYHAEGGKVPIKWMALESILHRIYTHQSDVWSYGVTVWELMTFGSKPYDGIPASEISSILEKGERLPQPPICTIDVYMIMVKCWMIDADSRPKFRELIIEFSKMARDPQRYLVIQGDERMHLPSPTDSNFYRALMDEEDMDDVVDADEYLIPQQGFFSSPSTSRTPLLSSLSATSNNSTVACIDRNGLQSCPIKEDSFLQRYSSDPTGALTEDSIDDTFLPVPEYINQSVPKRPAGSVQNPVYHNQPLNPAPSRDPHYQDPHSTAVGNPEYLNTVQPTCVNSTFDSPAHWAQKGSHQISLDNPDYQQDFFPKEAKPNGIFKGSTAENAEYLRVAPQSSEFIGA

Turning to `C=CC(=O)Nc1cc(Nc2nccc(-n3cc(CN(C)C)c(C(C)(C)C)n3)n2)c(OC)cc1N(C)CCOC` [Compound 100, N-(5-(4-(3-tert-butyl-4-((dimethylamino)methyl)-1H-pyrazol-1-yl)pyrimidin-2-ylamino)-4-methoxy-2-((2-methoxyethyl)(methyl)amino)phenyl)acrylamide], the IC50 in experiment [1] was below 0.02 µM; in [2] it was 0.02 to 0.2 µM; in experiment [3], below 0.02 µM; in experiment [4], above 1 µM; in experiment [5], 0.02 to 0.2 µM; in experiment [6] it was above 1 µM. In addition, the IC50 was below 0.02 µM in experiment [7], 0.02 to 0.2 µM in experiment [8] and below 0.02 µM in experiment [9]. In addition, in experiment [2], the “Selectivity over wildtype, Wildtype vs mutant H2073/H1975 (fold)” value (“Selectivity … vs mutant H2073/H1975 (fold)” below) is 101-200 fold. Further, the “Selectivity over wildtype, Wildtype vs mutant H2073/PC9 (fold)” value (“Selectivity … vs mutant H2073/PC9 (fold)” for short) in experiment [5] is 101-200 fold.
Regarding `Cc1cc(Nc2nccc(-n3cc(CN4CC[C@@H](O)C4)c(C)n3)n2)cc(C)c1OCCN1CCCC1` [Compound 148, (R)-1-((1-(2-(3,5-dimethyl-4-(2-(pyrrolidin-1-yl)ethoxy)phenylamino)pyrimidin-4-yl)-3-methyl-1H-pyrazol-4-yl)methyl)pyrrolidin-3-ol, reference compound], the IC50 in experiment [1] is above 1 µM; in experiment [2] it was above 1 µM; in experiment [3] it was above 1 µM; in experiment [4], 0.201 to 1 µM; in experiment [5], above 1 µM; in experiment [6], above 1 µM. The IC50 in experiment [7] was 0.201 to 1 µM; in experiment [8], above 1 µM; in experiment [9] it was 0.201 to 1 µM. Further, in experiment [2], the “Selectivity … vs mutant H2073/H1975 (fold)” value is recorded as below 20 fold. For the same compound, the “Selectivity … vs mutant H2073/PC9 (fold)” value in experiment [5] is on record as below 20 fold.
With `C=CCC(=O)Nc1cc(Nc2nccc(-n3cc(CN(C)C)c(-c4ccccc4)n3)n2)c(OC)cc1N1CCOCC1` [Compound 154, N-(5-(4-(4-((dimethylamino)methyl)-3-phenyl-1H-pyrazol-1-yl)pyrimidin-2-ylamino)-4-methoxy-2-morpholinophenyl)but-3-enamide, reference compound], in experiment [2], the IC50 lay in the range of 0.201 to 1 µM and the “Selectivity … vs mutant H2073/H1975 (fold)” value was below 20 fold. For the same compound, in [5], the “Selectivity … vs mutant H2073/PC9 (fold)” value is recorded as below 20 fold and the IC50 was 0.02 to 0.2 µM. This compound also yielded an IC50 in experiment [6] above 1 µM.
As for `C=C(F)C(=O)Nc1cc(Nc2nccc(-n3cc(CN4CCC4)c(-c4ccccc4)n3)n2)c(OC)cc1N1CCOCC1` [Compound 159, N-(5-(4-(4-(azetidin-1-ylmethyl)-3-phenyl-1H-pyrazol-1-yl)pyrimidin-2-ylamino)-4-methoxy-2-morpholinophenyl)-2-fluoroacrylamide, reference compound], the IC50 in experiment [1], in experiment [2], in experiment [3], in experiment [4], in experiment [5] and in experiment [6] was above 1 µM throughout. Moreover, the IC50 in [7] was 0.02 to 0.2 µM; in experiment [8], above 1 µM; in experiment [9] it was 0.02 to 0.2 µM. Also, in [2], the “Selectivity … vs mutant H2073/H1975 (fold)” value is on record as below 20 fold. Besides, the “Selectivity … vs mutant H2073/PC9 (fold)” value in experiment [5] was below 20 fold.
For `Cc1cc(C)cc(Nc2nccc(-n3cc(CN4CC(O)C4)c(C)n3)n2)c1` [Compound 147, 1-((1-(2-(3,5-dimethylphenylamino)pyrimidin-4-yl)-3-methyl-1H-pyrazol-4-yl)methyl)azetidin-3-ol, reference compound], the IC50 is above 1 µM in experiment [1]; above 1 µM in experiment [2]; above 1 µM in experiment [3]; 0.02 to 0.2 µM in experiment [4]; above 1 µM in experiment [5]; above 1 µM in experiment [6]. Further, the IC50 was 0.201 to 1 µM in [7], above 1 µM in experiment [8] and above 1 µM in [9]. Also, the “Selectivity … vs mutant H2073/H1975 (fold)” value in [2] is given as below 20 fold. Besides, the “Selectivity … vs mutant H2073/PC9 (fold)” value in [5] is given as below 20 fold.
`CCC(=O)Nc1cc(Nc2nccc(-n3cc(CN(C)C)c(-c4ccccc4)n3)n2)c(OC)cc1N1CCOCC1` [Compound 157, N-(5-(4-(4-((dimethylamino)methyl)-3-phenyl-1H-pyrazol-1-yl)pyrimidin-2-ylamino)-4-methoxy-2-morpholinophenyl)propionamide, reference compound]: the IC50 in experiment [1], in experiment [2], in experiment [3], in experiment [4], in experiment [5] and in [6] was above 1 µM each time. In addition, the IC50 in experiment [7], in experiment [8] and in experiment [9] was above 1 µM in each case. Besides, the “Selectivity … vs mutant H2073/H1975 (fold)” value in [2] was below 20 fold. The “Selectivity … vs mutant H2073/PC9 (fold)” value in experiment [5] was below 20 fold.
In the case of `Cc1cc(Nc2nccc(-n3cc(CN4CC(O)C4)c(C4CC4)n3)n2)cc(C)c1OCCO` [Compound 151, 1-((3-cyclopropyl-1-(2-(4-(2-hydroxyethoxy)-3,5-dimethylphenylamino)pyrimidin-4-yl)-1H-pyrazol-4-yl)methyl)azetidin-3-ol, reference compound], the IC50 in experiment [1] is 0.02 to 0.2 µM; in experiment [2], above 1 µM; in experiment [3] it was above 1 µM; in experiment [4] it was 0.201 to 1 µM; in experiment [5], above 1 µM; in experiment [6], above 1 µM. In addition, the IC50 in [7] is 0.02 to 0.2 µM; in [8], above 1 µM; in experiment [9], 0.201 to 1 µM. Moreover, the “Selectivity … vs mutant H2073/H1975 (fold)” value in experiment [2] is below 20 fold. Moreover, the “Selectivity … vs mutant H2073/PC9 (fold)” value in [5] was below 20 fold.
Regarding `C=CC(=O)Nc1cc(Nc2nccc(-n3cc(CN4CCC4)c(-c4cccs4)n3)n2)c(OC)cc1N1CCOCC1` [Compound 118, N-(5-(4-(4-(azetidin-1-ylmethyl)-3-(thiophen-2-yl)-1H-pyrazol-1-yl)pyrimidin-2-ylamino)-4-methoxy-2-morpholinophenyl)acrylamide], the IC50 in [1] is below 0.02 µM; in experiment [2] it was below 0.02 µM; in experiment [3], below 0.02 µM; in experiment [4], 0.02 to 0.2 µM; in [5], below 0.02 µM; in experiment [6], 0.201 to 1 µM. In addition, the IC50 in [7], in experiment [8] and in experiment [9] was below 0.02 µM in each case. The “Selectivity … vs mutant H2073/H1975 (fold)” value in experiment [2] is on record as 20-200 fold. Also, in experiment [5], the “Selectivity … vs mutant H2073/PC9 (fold)” value was 20-200 fold.
On to `CC/C=C/C(=O)Nc1cc(Nc2nccc(-n3cc(CN(C)C)c(-c4ccccc4)n3)n2)c(OC)cc1N1CCOCC1` [Compound 155, (E)-N-(5-(4-(4-((dimethylamino)methyl)-3-phenyl-1H-pyrazol-1-yl)pyrimidin-2-ylamino)-4-methoxy-2-morpholinophenyl)pent-2-enamide, reference compound], for which, in [2], the IC50 was in the range of 0.201 to 1 µM and the “Selectivity … vs mutant H2073/H1975 (fold)” value is below 20 fold. Further, in [5], the “Selectivity … vs mutant H2073/PC9 (fold)” value was below 20 fold and the IC50 lay in the range of 0.201 to 1 µM. The compound also returned an IC50 in [6] above 1 µM.
In the case of `CC/C=C\CC(=O)Nc1cc(Nc2nccc(-n3cc(CN(C)C)c(-c4ccccc4)n3)n2)c(OC)cc1N1CCOCC1` [Compound 156, (Z)—N-(5-(4-(4-((dimethylamino)methyl)-3-phenyl-1H-pyrazol-1-yl)pyrimidin-2-ylamino)-4-methoxy-2-morpholinophenyl)hex-3-enamide, reference compound], the IC50 in experiment [1], in [2], in experiment [3], in [4], in experiment [5] and in experiment [6] was above 1 µM each time. The IC50 lay in the range of 0.201 to 1 µM in [7] and 0.02 to 0.2 µM in experiment [9]. Also, the “Selectivity … vs mutant H2073/H1975 (fold)” value in experiment [2] was below 20 fold. Moreover, in [5], the “Selectivity … vs mutant H2073/PC9 (fold)” value was below 20 fold.
As to `C=CC(=O)Nc1cc(Nc2ncc(F)c(-n3cc(C)c(CN4CCC4)c3)n2)c(OC)cc1N1CCC1` [Compound 141, N-(2-(azetidin-1-yl)-5-(4-(3-(azetidin-1-ylmethyl)-4-methyl-1H-pyrrol-1-yl)-5-fluoropyrimidin-2-ylamino)-4-methoxyphenyl)acrylamide], the IC50 in experiment [1] is below 0.02 µM; in experiment [3], below 0.02 µM; in experiment [4], 0.201 to 1 µM; in experiment [7], below 0.02 µM; in experiment [8] it was below 0.02 µM; in experiment [9] it was below 0.02 µM.
`C=CC(=O)Nc1cc(Nc2nccc(-n3cc(CN4CCC4)c(C4CC4)n3)n2)c(OC)cc1N1CCN(C(C)=O)CC1` [Compound 138, N-(2-(4-acetylpiperazin-1-yl)-5-(4-(4-(azetidin-1-ylmethyl)-3-cyclopropyl-1H-pyrazol-1-yl)pyrimidin-2-ylamino)-4-methoxyphenyl)acrylamide]: the IC50 in [1] was below 0.02 µM; in experiment [3] it was below 0.02 µM; in experiment [4], above 1 µM; in experiment [7] it was below 0.02 µM; in [8], below 0.02 µM; in [9] it was below 0.02 µM.

The record behind these values is patent publication USRE50528E1, “Compounds and compositions for modulating EGFR mutant kinase activities” (Yuhan Corporation, priority 2014, dated 2025).
